Read-outs that look alike come from different tables or passages of the source.
Assays:
[1] = tested on: MDA-MB-231, SKBR3, MCF-7 and 4T-1 breast cancer cells; assay: Sulforhodamine B cell survival assay, range over the breast cancer cell panel; assay type: cell-based
Experimental: The cells were fixed with ice cold 10% trichloroacetic acid, washed and stained with sulforhodamine B (SRB) dye and the optical density was measured in Tris base solution using plate reader, after washing the dye with 1% acetic acid solution as described by us previously.

4T-1 cells = assay: Annexin V-FITC apoptosis assay; assay type: cell-based, murine; details: 4T-1, 75nM CuB for 72h
Experimental: (§1) Apoptosis assay was performed using a kit (BD Biosciences, CA) according to manufacturer's instructions. Approximately, 0.1x10^6 cells were plated in 6-well plate and left overnight for attachment. […] A 5.0μl of Annexin V-FITC and 5μl of propidium iodide (BD Biosciences, San Jose, CA) were added to the 100μl of suspension and incubated for additional 20 min at room temperature in dark. Total sample volume was made up to 200μl with binding buffer. Samples were analyzed by flow cytometer after vortexing (Accuri C6, MI).

4T-1 orthotopic tumors = assay: Orthotopic breast tumor therapy model; assay type: in vivo, female BALB/c mice; details: 1mg/kg i.p. every third day
Experimental: In another experiment, female BALB/c mice (4-6 weeks old) were obtained from Jackson Laboratories (Ban harbor, Maine, USA) and maintained under controlled humidity and temperature conditions. The use of BALB/c mice and their treatment was approved by the Institutional Animal Care and Use Committee (IACUC), Texas Tech University Health Sciences Center, and the experiments were conducted in strict compliance with the regulations. Exponentially growing 4T-1 cells were harvested, washed and re-suspended in PBS at a density of 1x10^6 cells per ml with 50% matrigel. A suspension of 0.1mL containing 0.1x10^6 cells was injected in the mammary fat pads of the recipient mice. Tumor volumes and animal weights were measured every alternate day as described by us previously. When the tumors reached a size of about 30-50 mm3, mice were randomly segregated into two groups with eight mice in each group. […] The control mice received vehicle alone. Mice were sacrificed on day 28 by CO2 overdose and death was confirmed by cervical dislocation in accordance with IACUC guidelines. The tumors were removed aseptically from each mouse, weighed and snap frozen in liquid-nitrogen for further analysis.

[2] = tested on: non-small lung carcinoma tumor xenografts; details: 1mg/kg every alternate day for 5 weeks; cited from earlier work
MDA-MB-231 cells = assay: Annexin V-FITC apoptosis assay; assay type: cell-based, human; details: MDA-MB-231, 75nM CuB for 72h
Experimental: as §1

MCF-7 cells = assay: Annexin V-FITC apoptosis assay; assay type: cell-based, human; details: MCF-7, 75nM CuB for 72h
Experimental: as §1

SKBR3 cells = assay: Annexin V-FITC apoptosis assay; assay type: cell-based, human; details: SKBR3, 75nM CuB for 72h
Experimental: as §1

[3] = tested on: MDA-MB-231 orthotopic tumors; assay: Orthotopic breast tumor therapy model; assay type: in vivo, female athymic nude mice; details: 2mg/kg oral gavage every day
Experimental: Female athymic nude mice (4-6 weeks old) were obtained from Jackson Laboratories (Ban harbor, Maine, USA) and maintained under specific pathogen-free conditions. The use of athymic nude mice and their treatment was approved by the Institutional Animal Care and Use Committee (IACUC), Texas Tech University Health Sciences Center, and the experiments were conducted in strict compliance with the regulations. Mice were given antioxidant-free AIN-76A special diet (TestDiet, Richmond, IN) one week before starting the experiment. Exponentially growing MDA-MB-231 cells were harvested, washed and resuspended in PBS at a density of 50x10^6 cells per ml with 80% matrigel (BD Biosciences, San Jose, CA). A suspension of 0.1mL containing 5x10^6 cells was injected in the mammary fat pads of the recipient mice. Tumor volumes and animal weights were measured twice a week as described by us previously. When the tumors reached a size of about 50-80 mm^3, mice were randomly segregated into two groups with ten mice in each group. […] Mice were sacrificed on day 60 by CO2 overdose and death was confirmed by cervical dislocation in accordance with IACUC guidelines. The tumors were dissected out aseptically from each mouse, weighed and snap frozen in liquid-nitrogen for western blot analysis.

[4] = tested on: MDA-MB-231 orthotopic tumor; details: after 36 days, cited from earlier work
melanoma tumors = details: 1mg/kg intraperitoneal thrice a week, after 23 days; cited from earlier work
[5] = tested on: normal human melanocyte epithelial (PIG1) cells; assay: Sulforhodamine B cell survival assay in normal cells; assay type: cell-based; details: 50nM CuB for 72h
Experimental: The cells were fixed with ice cold 10% trichloroacetic acid, washed and stained with sulforhodamine B (SRB) dye and the optical density was measured in Tris base solution using plate reader, after washing the dye with 1% acetic acid solution as described by us previously. […]
vivo breast tumor growth suppression – Gupta et al
24, 48h and 72h. Cell survival was measured with sulforhodamine B assay to estimate the IC50 values. The ex periments were repeated at least three times with 4 replicates in each ex periment. B. Comparison of the cell survival of PIG1 and the breast cancer cell lines at 50nM […]
(1 picture or pasted object on this page, not shown here)

[6] = tested on: ITGA6 in MDA-MB-231 cells; assay: Western blot of ITGA6 expression after TGFβ treatment; assay type: cell-based, human
Experimental: (§2) Whole cell lysates were prepared using 4% (w/v) CHAPS buffer while tumor lysates were prepared by homogenizing the tumors in RIPA lysis buffer. Proteins from control and treated samples were subjected to SDS-PAGE and the segregated proteins were transferred to PVDF membrane. The membrane was developed as described by us previously. All antibodies used in the study were purchased from Cell signaling except HER2 (Abcam, Cambridge, MA), ITGB4 (Santacruz Biotechnology, Dallas, TX), TWIST (Santacruz Biotechnology, Dallas, TX), phospho Akt (S473) (Santacruz Biotechnology, Dallas, TX) and Caspase 3 (Santacruz Biotechnology, Dallas, TX).

ITGA6 in 4T-1 cells = assay: as above; assay type: cell-based, murine
Experimental: as §2

Substance | growth inhibition of cancer cell lines SKBR3, MDA-MB-231, MCF-7 and 4-T1 ([1]; 50nM CuB for 72h) | IC50 ([1]; after 48 and 72 h of treatment) [nM] | apoptosis induced (cells) (4T-1 cells) | tumor weight reduction (4T-1 orthotopic tumors; day 28) [%] | tumor volume in treated group (4T-1 orthotopic tumors; day 28, n=8) [mm^3] | tumor volume reduction [2] [%] | apoptosis induced (cells) (MDA-MB-231 cells) | apoptosis induced (cells) (MCF-7 cells) | apoptosis induced (cells) (SKBR3 cells) | tumor volume reduction as compared to control ([3]; day 60) [%] | tumor volume in treated group ([3]; day 60, n=10) [mm^3] | tumor weight less than control ([3]; tumors dissected at day 60) | tumor volume suppression ([4]; 0.5 mg/kg i.p.) [%] | tumor volume suppression ([4]; 1mg/kg i.p.) [%] | suppression of tumor growth (melanoma tumors) | growth inhibition of PIG1 cells [5] | increase of ITGA6 expression [6] | increase of ITGA6 expression (ITGA6 in 4T-1 cells)
Cucurbitacin B [CuB] | 50-70% | 18 to 50 | about 60% | 27 | 1446.7±142.6 | 70 | about 60% | about 60% | about 80% | 55 | 111.3±18.4 | about 53% | 42 | 55 | about 50% | 20-30% | – | –
TGFβ | – | – | – | – | – | – | – | – | – | – | – | – | – | – | – | – | about 1.5 fold | about 1.5 fold

— paper PMC4039119 (Oncotarget, 2014)
